# According to ChEMBL document CHEMBL1201861, “Genomics of Drug Sensitity in Cancer screening data, Wellcome Trust Sanger Institute”:
# What was measured:
# Test in all cases: cells
# Settings in all cases: Homo sapiens
# COR-L88 = format: functional, cell-based;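 note: growth inhibition of COR-L88 cells, read out with a cell viability assay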
# Description: SANGER: Inhibition of human COR-L88 cell growth in a cell viability assay.
# CTB-1 = format: functional, cell-based
# Description: SANGER: Inhibition of human CTB-1 cell growth in a cell viability assay.
# D283 Med = format: functional, cell-based
# Description: SANGER: Inhibition of human D-283MED cell growth in a cell viability assay.
# DB = format: functional, cell-based
# Description: SANGER: Inhibition of human DB cell growth in a cell viability assay.
# ES1 = format: functional, cell-based;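 note: growth inhibition of ES1 cells, read out with a cell viability assay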
# Description: SANGER: Inhibition of human ES1 cell growth in a cell viability assay.
# ES3 = format: functional, cell-based;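 note: growth inhibition of ES3 cells, read out with a cell viability assay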
# Description: SANGER: Inhibition of human ES3 cell growth in a cell viability assay.
# ES6 = format: functional, cell-based;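 note: growth inhibition of human ES6 cells, read out with a cell viability assay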
# Description: SANGER: Inhibition of human ES6 cell growth in a cell viability assay.
# ES8 = format: functional, cell-based;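 note: growth inhibition of human ES8 cells, read out with a cell viability assay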
# Description: SANGER: Inhibition of human ES8 cell growth in a cell viability assay.
# EW-13 = format: functional, cell-based;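 note: growth inhibition of EW-13 cells, read out with a cell viability assay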
# Description: SANGER: Inhibition of human EW-13 cell growth in a cell viability assay.
# EW-16 = format: functional, cell-based;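 note: growth inhibition of human EW-16 cells, read out as cell viability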
# Description: SANGER: Inhibition of human EW-16 cell growth in a cell viability assay.
# EW-3 = format: functional, cell-based;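 note: cell viability assay read-out, IC50 reflects inhibition of growth of the EW-3 cells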
# Description: SANGER: Inhibition of human EW-3 cell growth in a cell viability assay.
# GB-1 = format: functional, cell-based;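 note: growth of GB-1 cells judged by a viability assay, IC50 marks the concentration inhibiting growth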
# Description: SANGER: Inhibition of human GB-1 cell growth in a cell viability assay.
# GI-1 = format: functional, cell-based;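 note: growth inhibition of human GI-1 cells, measured with a cell viability readout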
# Description: SANGER: Inhibition of human GI-1 cell growth in a cell viability assay.
# GR-ST = format: functional, cell-based
# Description: SANGER: Inhibition of human GR-ST cell growth in a cell viability assay.
# HCE-4 = format: functional, cell-based;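 note: cell viability assay measuring inhibition of growth in the human HCE-4 cell line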
# Description: SANGER: Inhibition of human HCE-4 cell growth in a cell viability assay.
# HDLM-2 = format: functional, cell-based;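 note: cell viability assay measuring suppression of HDLM-2 proliferation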
# Description: SANGER: Inhibition of human HDLM-2 cell growth in a cell viability assay.
# HEL = format: functional, cell-based;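 note: growth inhibition of HEL cells, read out with a cell viability assay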
# Description: SANGER: Inhibition of human HEL cell growth in a cell viability assay.
# J-RT3-T3-5 = format: functional, cell-based;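 note: cell viability assay measuring growth inhibition of human J-RT3-T3-5 cells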
# Description: SANGER: Inhibition of human J-RT3-T3-5 cell growth in a cell viability assay.
# JAR = format: functional, cell-based;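 note: growth inhibition of human JAR cells determined with a cell viability assay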
# Description: SANGER: Inhibition of human JAR cell growth in a cell viability assay.
# JVM-3 = format: functional, cell-based;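 note: growth inhibition of human JVM-3 cells, read out with a cell viability assay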
# Description: SANGER: Inhibition of human JVM-3 cell growth in a cell viability assay.
# K5 = format: functional, cell-based
# Description: SANGER: Inhibition of human K5 cell growth in a cell viability assay.
# KG-1 = format: functional, cell-based;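 note: growth inhibition of KG-1 cells, read out by a cell viability assay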
# Description: SANGER: Inhibition of human KG-1 cell growth in a cell viability assay.
# KGN = format: functional, cell-based;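 note: growth inhibition of KGN cells, read out with a cell viability assay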
# Description: SANGER: Inhibition of human KGN cell growth in a cell viability assay.
# KM12 = format: functional, cell-based;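 note: KM12 cell growth inhibition, read out with a cell viability assay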
# Description: SANGER: Inhibition of human KM12 cell growth in a cell viability assay.
# KP-N-YS = format: functional, cell-based;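 note: cell viability assay measuring inhibition of cell line growth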
# Description: SANGER: Inhibition of human KP-N-YS cell growth in a cell viability assay.
# LB1047-RCC = format: functional, cell-based;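 note: inhibition of cell growth, determined with a cell viability assay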
# Description: SANGER: Inhibition of human LB1047-RCC cell growth in a cell viability assay.
# LB771-HNC = format: functional, cell-based;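 note: growth inhibition of LB771-HNC human cells, read out with a cell viability assay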
# Description: SANGER: Inhibition of human LB771-HNC cell growth in a cell viability assay.
# LB831-BLC = format: functional, cell-based;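 note: growth inhibition of LB831-BLC cells, read out with a cell viability assay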
# Description: SANGER: Inhibition of human LB831-BLC cell growth in a cell viability assay.
# LOX IMVI = format: functional, cell-based
# Description: SANGER: Inhibition of human LOXIMVI cell growth in a cell viability assay.
# LS-411N = format: functional, cell-based
# MFH-ino = format: functional, cell-based;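 note: growth inhibition of human MFH-ino cells, read out by a cell viability assay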
# Description: SANGER: Inhibition of human MFH-ino cell growth in a cell viability assay.
# MOLT-16 = format: functional, cell-based;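 note: growth inhibition of human MOLT-16 cells, read out with a cell viability assay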
# Description: SANGER: Inhibition of human MOLT-16 cell growth in a cell viability assay.
# MOLT-4 = format: functional, cell-based;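 note: growth inhibition of MOLT-4 cells, determined with a cell viability readout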
# Description: SANGER: Inhibition of human MOLT-4 cell growth in a cell viability assay.
# MS-1 = format: functional, cell-based;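 note: growth inhibition of MS-1 cells, read out by cell viability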
# Description: SANGER: Inhibition of human MS-1 cell growth in a cell viability assay.
# MV4-11 = format: functional, cell-based, MV-4-11;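 note: cell viability readout measuring growth inhibition of human MV-4-11 cells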
# Description: SANGER: Inhibition of human MV-4-11 cell growth in a cell viability assay.
# MZ1-PC = format: functional, cell-based;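 note: cell viability assay measuring growth inhibition of human MZ1-PC cells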
# Description: SANGER: Inhibition of human MZ1-PC cell growth in a cell viability assay.
# MZ7-mel = format: functional, cell-based;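 note: growth inhibition of human MZ7-mel cells, measured by a cell viability assay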
# Description: SANGER: Inhibition of human MZ7-mel cell growth in a cell viability assay.
# NB69 = format: functional, cell-based;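 note: growth inhibition of NB69 cells, determined by a cell viability assay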
# Description: SANGER: Inhibition of human NB69 cell growth in a cell viability assay.
# NCI-H1355 = format: functional, cell-based;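 note: growth inhibition of human NCI-H1355 cells, read out by a cell viability assay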
# Description: SANGER: Inhibition of human NCI-H1355 cell growth in a cell viability assay.
# NCI-H1581 = format: functional, cell-based;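 note: cell growth inhibition read out by a viability assay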
# Description: SANGER: Inhibition of human NCI-H1581 cell growth in a cell viability assay.
# NCI-H1648 = format: functional, cell-based;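 note: cell viability assay measuring inhibition of NCI-H1648 cell growth, from the Sanger screening data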
# Description: SANGER: Inhibition of human NCI-H1648 cell growth in a cell viability assay.
# NCI-H1838 = format: functional, cell-based;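 note: growth inhibition of NCI-H1838 cells, determined with a cell viability readout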
# Description: SANGER: Inhibition of human NCI-H1838 cell growth in a cell viability assay.
# NCI-H209 = format: functional, cell-based;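 note: growth inhibition of human NCI-H209 cells, measured by a cell viability assay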
# Description: SANGER: Inhibition of human NCI-H209 cell growth in a cell viability assay.
# NCI-H526 = format: functional, cell-based;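 note: growth inhibition of the human NCI-H526 cell line, measured by a cell viability assay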
# Description: SANGER: Inhibition of human NCI-H526 cell growth in a cell viability assay.
# NMC-G1 = format: functional, cell-based;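 note: growth inhibition of the NMC-G1 cell line, measured with a cell viability read-out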
# Description: SANGER: Inhibition of human NMC-G1 cell growth in a cell viability assay.
# RKO = format: functional, cell-based;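 note: growth inhibition of human RKO cells, read out with a cell viability assay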
# Description: SANGER: Inhibition of human RKO cell growth in a cell viability assay.
# RPMI-8226 = format: functional, cell-based
# Description: SANGER: Inhibition of human RPMI-8226 cell growth in a cell viability assay.
# SBC-1 = format: functional, cell-based;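 note: cell viability assay measuring growth inhibition of the SBC-1 cell line, IC50 being the concentration that halves growth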
# Description: SANGER: Inhibition of human SBC-1 cell growth in a cell viability assay.
# SCC-15 = format: functional, cell-based;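 note: growth inhibition of SCC-15 cells, read out with a cell viability assay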
# Description: SANGER: Inhibition of human SCC-15 cell growth in a cell viability assay.
# SK-MEL-1 = format: functional, cell-based;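 note: growth inhibition of human SK-MEL-1 cells, read out by a cell viability assay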
# Description: SANGER: Inhibition of human SK-MEL-1 cell growth in a cell viability assay.
# SK-PN-DW = format: functional, cell-based;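 note: growth inhibition measured with a viability assay on these cells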
# Description: SANGER: Inhibition of human SK-PN-DW cell growth in a cell viability assay.
# SW 954 = format: functional, cell-based;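 note: growth inhibition of SW954 human cancer cells, read out as cell viability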
# Description: SANGER: Inhibition of human SW954 cell growth in a cell viability assay.
# TE-1 = format: functional, cell-based
# Description: SANGER: Inhibition of human TE-1 cell growth in a cell viability assay.
# 697 = format: functional, cell-based
# Description: SANGER: Inhibition of human 697 cell growth in a cell viability assay.
# A388 = format: functional, cell-based;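 note: growth inhibition of human A388 cells, read out with a cell viability assay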
# Description: SANGER: Inhibition of human A388 cell growth in a cell viability assay.
# A4-Fuk = format: functional, cell-based;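 note: growth inhibition of A4-Fuk cells, read out by a cell viability assay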
# Description: SANGER: Inhibition of human A4-Fuk cell growth in a cell viability assay.
# ACN = format: functional, cell-based;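 note: growth inhibition of the human ACN cell line, read out via cell viability testing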
# Description: SANGER: Inhibition of human ACN cell growth in a cell viability assay.
# BB49-HNC = format: functional, cell-based;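 note: cell viability assay read-out, reported as inhibition of BB49-HNC cell growth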
# Description: SANGER: Inhibition of human BB49-HNC cell growth in a cell viability assay.
# C2BBe1 = format: functional, cell-based;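 note: growth inhibition of C2BBe1 cells, read out through a viability assay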
# Description: SANGER: Inhibition of human C2BBe1 cell growth in a cell viability assay.
# TE-11 = format: functional, cell-based
# Description: SANGER: Inhibition of human TE-11 cell growth in a cell viability assay.
# TE-5 = format: functional, cell-based
# Description: SANGER: Inhibition of human TE-5 cell growth in a cell viability assay.
# TE-6 = format: functional, cell-based
# Description: SANGER: Inhibition of human TE-6 cell growth in a cell viability assay.
# TE-9 = format: functional, cell-based
# Description: SANGER: Inhibition of human TE-9 cell growth in a cell viability assay.
# U-266 = format: functional, cell-based
# Description: SANGER: Inhibition of human U-266 cell growth in a cell viability assay.
# CGTH-W-1 = format: functional, cell-based
# Description: SANGER: Inhibition of human CGTH-W-1 cell growth in a cell viability assay.
# COLO-684 = format: functional, cell-based
# Description: SANGER: Inhibition of human COLO-684 cell growth in a cell viability assay.
smiles,measurement,setting,value
CC[C@]1(O)C[C@@H]2CN(CCc3c([nH]c4ccccc34)[C@@](C(=O)OC)(c3cc4c(cc3OC)N(C)[C@H]3[C@@](O)(C(=O)OC)[C@H](OC(C)=O)[C@]5(CC)C=CCN6CC[C@]43[C@@H]65)C2)C1 [VINBLASTINE],IC50,COR-L88,24.3 nM
same,IC50,CTB-1,1.64 nM
same,IC50,D283 Med,39.1 nM
same,IC50,DB,1.69 nM
same,IC50,ES1,4.71 nM
same,IC50,ES3,2.77 nM
same,IC50,ES6,> 100 nM
same,IC50,ES8,3.24 nM
same,IC50,EW-13,36.5 nM
same,IC50,EW-16,7.83 nM
same,IC50,EW-3,37.2 nM
same,IC50,GB-1,39.8 nM
same,IC50,GI-1,4.36 nM
same,IC50,GR-ST,7.63 nM
same,IC50,HCE-4,18.1 nM
same,IC50,HDLM-2,> 100 nM
same,IC50,HEL,32.8 nM
same,IC50,J-RT3-T3-5,0.788 nM
same,IC50,JAR,0.608 nM
same,IC50,JVM-3,1.7 nM
same,IC50,K5,4.68 nM
same,IC50,KG-1,18.4 nM
same,IC50,KGN,33.3 nM
same,IC50,KM12,14.4 nM
same,IC50,KP-N-YS,22.9 nM
same,IC50,LB1047-RCC,40.3 nM
same,IC50,LB771-HNC,8.57 nM
same,IC50,LB831-BLC,21.2 nM
same,IC50,LOX IMVI,6.98 nM
same,IC50,LS-411N,66.4 nM
same,IC50,MFH-ino,> 100 nM
same,IC50,MOLT-16,2.43 nM
same,IC50,MOLT-4,3.85 nM
same,IC50,MS-1,30.8 nM
same,IC50,MV4-11,2.81 nM
same,IC50,MZ1-PC,24.2 nM
same,IC50,MZ7-mel,11.1 nM
same,IC50,NB69,5.73 nM
same,IC50,NCI-H1355,19.5 nM
same,IC50,NCI-H1581,4.24 nM
same,IC50,NCI-H1648,5.52 nM
same,IC50,NCI-H1838,> 100 nM
same,IC50,NCI-H209,13.1 nM
same,IC50,NCI-H526,5.14 nM
same,IC50,NMC-G1,8.48 nM
same,IC50,RKO,8.24 nM
same,IC50,RPMI-8226,2.85 nM
same,IC50,SBC-1,8.1 nM
same,IC50,SCC-15,23.1 nM
same,IC50,SK-MEL-1,67.3 nM
same,IC50,SK-PN-DW,6.14 nM
same,IC50,SW 954,9.66 nM
same,IC50,TE-1,10.9 nM
same,IC50,697,6.23 nM
same,IC50,A388,6.91 nM
same,IC50,A4-Fuk,1.87 nM
same,IC50,ACN,40.3 nM
same,IC50,BB49-HNC,12.6 nM
same,IC50,C2BBe1,16.9 nM
same,IC50,TE-11,5.13 nM
same,IC50,TE-5,6.14 nM
same,IC50,TE-6,56.5 nM
same,IC50,TE-9,4.27 nM
same,IC50,U-266,10.8 nM
same,IC50,CGTH-W-1,5.56 nM
same,IC50,COLO-684,7.67 nM
